Assay results published in ChEMBL document CHEMBL3045372, “Biososteric Replacement in the Design and Synthesis of Ligands for Nicotinic Acetylcholine Receptors” (Med Chem Res, 2005).

Assays:
[1] = biological target: T1, Neuronal acetylcholine receptor; alpha4/beta2 (Homo sapiens, UniProt P17787+P43681); assay: Displacement of [3H]nicotine from Homo sapiens (human) alpha4beta2 nicotinic acetylcholine receptor expressed in Homo sapiens (human) SH-EP1 cells after 2.5 min by scintillation counting; assay type: cell-based
[2] = biological target: Neuronal acetylcholine receptor; alpha4/beta2 (Rattus norvegicus) (UniProt P09483+P12390); assay: Displacement of [3H]cytisine from alpha4beta2 nicotinic acetylcholine receptor in Rattus norvegicus (rat) cerebral cortex at 10 uM after 75 min by scintillation counting; assay type: tissue-based
[3] = biological target: T1, Neuronal acetylcholine receptor; alpha4/beta2; assay: Inhibition of alpha4beta2 nicotinic acetylcholine receptor (unknown origin); assay type: protein-complex assay

T1 sequence (P17787 whole entry): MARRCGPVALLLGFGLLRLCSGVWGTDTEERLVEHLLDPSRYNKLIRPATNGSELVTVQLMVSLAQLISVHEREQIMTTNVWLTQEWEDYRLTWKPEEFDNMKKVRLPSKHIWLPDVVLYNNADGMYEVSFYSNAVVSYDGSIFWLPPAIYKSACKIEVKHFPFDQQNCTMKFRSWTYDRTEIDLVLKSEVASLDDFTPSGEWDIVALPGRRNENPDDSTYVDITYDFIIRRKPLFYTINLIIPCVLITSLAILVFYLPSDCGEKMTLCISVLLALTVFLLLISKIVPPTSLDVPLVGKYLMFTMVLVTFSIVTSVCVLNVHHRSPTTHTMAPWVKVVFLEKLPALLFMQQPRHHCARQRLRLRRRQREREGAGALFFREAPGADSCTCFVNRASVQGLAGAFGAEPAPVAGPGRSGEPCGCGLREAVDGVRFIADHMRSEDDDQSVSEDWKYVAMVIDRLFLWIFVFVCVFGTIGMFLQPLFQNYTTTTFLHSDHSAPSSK
T1 sequence (P43681 whole entry): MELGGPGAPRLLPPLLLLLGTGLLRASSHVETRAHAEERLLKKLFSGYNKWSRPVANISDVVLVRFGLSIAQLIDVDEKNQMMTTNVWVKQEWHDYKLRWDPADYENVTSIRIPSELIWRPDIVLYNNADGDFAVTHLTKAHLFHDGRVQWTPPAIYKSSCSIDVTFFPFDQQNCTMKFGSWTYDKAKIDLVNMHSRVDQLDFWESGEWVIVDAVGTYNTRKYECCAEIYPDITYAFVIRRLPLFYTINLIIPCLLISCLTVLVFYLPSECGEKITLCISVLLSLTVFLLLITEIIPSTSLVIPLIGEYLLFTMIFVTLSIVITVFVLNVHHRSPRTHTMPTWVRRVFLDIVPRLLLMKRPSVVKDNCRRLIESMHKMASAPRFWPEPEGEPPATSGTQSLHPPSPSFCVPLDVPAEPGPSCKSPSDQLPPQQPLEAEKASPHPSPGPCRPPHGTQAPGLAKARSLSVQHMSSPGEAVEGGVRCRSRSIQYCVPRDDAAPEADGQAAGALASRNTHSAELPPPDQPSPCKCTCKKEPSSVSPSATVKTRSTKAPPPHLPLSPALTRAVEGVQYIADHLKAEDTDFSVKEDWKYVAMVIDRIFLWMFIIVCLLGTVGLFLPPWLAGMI

Row | SMILES | inhibition [2] [%] | Ki ([1]; read-out: Ki) [µM] | also measured
1 | CC(C)N(CCOc1cccnc1)C(C)C | 64 | 11.2 | inhibition [1]: Dose-dependent effect
2 | Oc1cccc(OC[C@@H]2CC3CCN2CC3)c1 |  |  | Ki [3]: 0.004 µM
3 | CN(C)CCOc1cncc(Cl)c1 | 84 | 0.45 | 
4 | CN(C)CCOc1cccnc1 | 95 | 0.3 | 
5 | CN(C)CCOc1cccc([N+](=O)[O-])c1 | 33 | 3.39 | 
6 | O=[N+]([O-])c1cccc(OC[C@@H]2CC3CCN2CC3)c1 |  |  | Ki [3]: 0.734 µM
7 | CN(C)CCOc1cccc(O)c1 |  | 0.36 | 

More lines, main results first:

Row | inhibition [2] [%] | SMILES | Ki ([1]; read-out: Ki) [µM] | also measured
8 | 0 | CC(C)N(CCOc1cccc(O)c1)C(C)C |  | 
9 | 21 | CCCN(CCC)CCOc1cccc([N+](=O)[O-])c1 |  | Ki ([1]; sh-ep1): Not Active
10 | 0 | c1ccc(N(CCOc2cccnc2)c2ccccc2)cc1 |  | 
11 | 0 | O=[N+]([O-])c1cccc(OCCN(c2ccccc2)c2ccccc2)c1 |  | 
12 | 0 | Oc1cccc(OCCN(c2ccccc2)c2ccccc2)c1 |  | 
13 | 0 | Cc1c(O)cccc1OCCN(c1ccccc1)c1ccccc1 |  | 
14 | 0 | CC(C)N(CCOc1cccc([N+](=O)[O-])c1)C(C)C |  | 
